Results from publication PMC5116675, “The lectin-like protein 1 in Lactobacillus rhamnosus GR-1 mediates tissue-specific adherence to vaginal epithelium and inhibits urogenital pathogens” (Scientific Reports, 2016).

Assays:
[1] = target: T1, lectin domain of LGR1_Llp1 (lectin-like protein 1) (Lacticaseibacillus rhamnosus, UniProt T1SH75); experiment: pull-down with sugar-coated Sepharose 6B beads, SDS-PAGE; assay type: binding; details: sugar immobilised on beads; 25 mM MES, 25 mM NaCl, 1% polyvinylalcohol, 4 °C, 2 h; 100 μg/ml lectin domain
T1 construct: gene E6L36_12050; N-terminal L-type lectin domain (PF00139, ca. 250 residues) with 22 amino acids extension, N-His6 tag (pET28a, pCMPG10775), from E. coli BL21(DE3); full protein 680 residues; FITC-labelled for glycan array
T1 sequence (T1SH75 31-352 limits assumed): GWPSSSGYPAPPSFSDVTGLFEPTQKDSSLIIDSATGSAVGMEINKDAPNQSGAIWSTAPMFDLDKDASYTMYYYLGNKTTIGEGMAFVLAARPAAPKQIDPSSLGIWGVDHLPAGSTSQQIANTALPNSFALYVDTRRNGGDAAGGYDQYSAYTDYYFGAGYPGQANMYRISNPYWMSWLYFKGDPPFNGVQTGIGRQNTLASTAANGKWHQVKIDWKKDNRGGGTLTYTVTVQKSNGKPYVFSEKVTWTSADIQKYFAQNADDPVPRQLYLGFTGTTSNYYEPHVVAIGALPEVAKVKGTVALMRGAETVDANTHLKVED

[2] = target: T1, lectin domain of LGR1_Llp1 (lectin-like protein 1); experiment: mammalian glycan array v5.[…] (CFG), FITC-labelled lectin domain; assay type: binding; details: glycan immobilised on NHS-activated glass slide through amino linker

| Compound | pull-down with sugar-coated Sepharose 6B beads, SDS-PAGE [1] | mammalian glycan array v5.2 (CFG), FITC-labelled lectin domain [2] |
| --- | --- | --- |
| OC[C@H]1OC(O)[C@@H](O)[C@@H](O)[C@@H]1O (stereo partly drawn) [D-mannose] | The purified lectin domain of Llp1 showed the highest binding to mannan and mannose |  |
| CC(=O)N[C@H]1[C@H](O[C@@H]2[C@H](O[C@]3(C(=O)O)C[C@H](O)[C@@H](NC(C)=O)[C@H]([C@H](O)[C@@H](CO)O[C@]4(C(=O)O)C[C@H](O)[C@@H](NC(C)=O)[C@H]([C@H](O)[C@H](O)CO)O4)O3)[C@@H](O)[C@H](O[C@H]3[C@H](O)[C@@H](O)[C@H](OCCN)O[C@@H]3CO)O[C@@H]2CO)O[C@H](CO)[C@H](O)[C@@H]1O[C@@H]1O[C@H](CO)[C@H](O)[C@H](O[C@]2(C(=O)O)C[C@H](O)[C@@H](NC(C)=O)[C@H]([C@H](O)[C@@H](CO)O[C@]3(C(=O)O)C[C@H](O)[C@@H](NC(C)=O)[C@H]([C@H](O)[C@H](O)CO)O3)O2)[C@H]1O [Neu5Acα2-8Neu5Acα2-3Galβ1-3GalNAcβ1-4(Neu5Acα2-8Neu5Acα2-3)Galβ1-4Glcβ-Sp0] |  | LGR1_Llp1 showed also a capacity to bind to the glycosphingolipid GQ1 receptor |
